Data on one molecule can be found in US20250313653A1, “GUEST/HOST INCLUSION COMPLEXES CONTAINING S-NITROSOGLUTATHIONE AND METHODS OF USE THEREOF” (VIRGINIA COMMONWEALTH UNIVERSITY, priority 2022, published 2025).

The test system of data set [1] is S. aureus. The data set is described as follows: Agar diffusion assay for the hydrogel containing GSNO. It counts as cell-based. To be noted: agar hydrogel on inoculated LB-agar plate, 24-h incubation at 37° C. As for the experimental part: Two grams of agar were dissolved in 100 mL of 0.1 M phosphate buffer at pH 7.4 at 80° C. for 3 h with stirring. GSNO solutions at 0.2 M with or without 0.2 M αCD in 0.1 M phosphate buffer at pH 7.4 were prepared separately. Then, 0.5 mL GSNO solution and 0.5 mL dissolved agar were mixed and put into an ice bath to facilitate gelation.
The overnight S. aureus culture was diluted to a density of 0.1 OD600 in PBS. Then, the diluted bacterial inoculum was uniformly spread on an LB-agar plate using a sterile cotton swab. The plate was marked as four separate portions. Forty μL of warm liquid agar with only buffer, GNSO, αCD, or GSNO-αCD (see section 2.5) was added onto a portion of the inoculated plate twice. The agar solution was gelated almost instantly due to the temperature decrease to form a small circular hydrogel area. The bacterial growth was visually examined after 24-h incubation at 37° C.
(In agar diffusion tests the substance spreads into inoculated agar from a disc or well.)

A short description of data set [2]: GSNO photodecomposition under LED white light. It is filed as physicochemical. The note with it: presence of αCD, 4-h experiment under LED white light, room temperature. On the procedure: (§1) Aqueous GSNO solutions were contained in 1.5 mL disposable polystyrene cuvettes. The cuvette was caped and further sealed with parafilm. The concentrations of GSNO during storage at 37° C. or 25° C. in the dark were monitored by a UV-vis spectrophotometer (Go Direct® Fluorescence/UV-VIS Spectrophotometer) at a wavelength of 545 nm. A 4 W LED white light was used as the light source for the photodecomposition experiment at room temperature. The distance between the light source and the cuvettes was approximately 10 cm. All GSNO decomposition experiments were triplicated, and the GSNO concentration was expressed as mean±standard deviation.

The test system of data set [3] is S. aureus. The data set is described as follows: Prevention of extraluminal biofilm on silicone catheters. It counts as cell-based. To be noted: 3-day experiments, 0.1 M GSNO without or with 0.1 M αCD as lock solution, 37° C. On the procedure: (§2) Both biofilm and planktonic bacteria were quantified to evaluate the antibacterial activities of the proposed method. LB medium (25 mg/mL) was used to culture all bacterial strains overnight before performing the antibacterial tests. Segments of medical-grade silicone tubes were all autoclaved. Lock solutions were freshly prepared using the sterilized buffer and filtered through a 0.22 m PES syringe filter. The biofilms on the silicone surface were dip-rinsed 5 times in PBS and detached by 1-min vertexing, 1-min sonication (20% power of a 150 W probe sonifier, Branson Ultrasonics), and another 1-min vertexing for plate counting. When quantifying the planktonic bacteria, the suspension was homogenized by 1-min vertexing. […] After plate incubation at 37° C. overnight, colony-forming units (CFU) of bacteria were counted and converted to CFU/cm^2 for biofilm quantification and CFU/mL for planktonic bacteria quantification. […] In our case, the limit of detection (LOD) is 400 CFU/cm^2 for biofilm quantification and 200 CFU/mL for quantification of planktonic bacteria. […] The statistical significance between groups was determined using a student's t-test.
The overnight S. aureus culture was diluted by LB (0.25 mg/mL) medium to approximately 10^3 CFU/mL. […] The viable bacteria on the outer surface were counted following the treatment.

The subject of a further data set is E. coli. In words: Antibacterial effect of NO release solutions, 3-day exposure. To be noted: silicone surface. It counts as cell-based. As for the experimental part:
as §2
The 0.1 M αCD, 0.1 M GSNO, and 0.1 M GSNO+0.1 M αCD solutions were prepared in LB broth buffered with 0.1 M Na2HPO4 and adjusted to pH 7.4. […] Viable biofilm and planktonic cells were evaluated by plate counting. […]

The nature of data set [4]: GSNO thermal decomposition via UV-Vis absorption spectroscopy. It is filed as physicochemical. On the procedure:
GSNO was synthesized by nitrosation of reduced L-glutathione in acidified nitrite as previously reported.^52 After collecting GSNO precipitates and washing them using cold water and acetone, GSNO powder was vacuum dried for 4 h and stored at −20° C. GSNO powders were dissolved in phosphate buffer (PB) containing the same mole of Na2HPO4 before the pH adjustment. For example, the formal concentration of Na2HPO4 is 0.1 M when the GSNO concentration is 0.1 M. One hundred μM EDTA was always added to each solution before the solution pH was finally adjusted to 7.4 via NaOH. EDTA is a chelating agent to mask Cu^2+, a S-nitrosothiol catalyst that may exist in solvents and chemicals as an impurity.^53 For solutions with reactive agents, BSA, ascorbic acid, or cysteine was added before the pH adjustment. To prepare GSNO-CD solutions, appropriate amounts of CD powders were dissolved into the GSNO solutions prior to the pH adjustment.
as §1

For data set [5] the following is noted: administrated in humans, dogs, and rats at appropriate doses; cited from earlier work.
Setting [6] is: 0.1 M GSNO in 0.1 M PB, pH 7.4, 37° C., with 0.15 M αCD and 0.1 M γCD.
[7] abbreviates: 0.1 M GSNO in 0.1 M PB, pH 7.4, 37° C., without CD.
Setting [8] is: 0.1 M GSNO with 0.15 M αCD and 0.1 M γCD versus GSNO only.

As to `N[C@@H](CCC(=O)N[C@@H](CSN=O)C(=O)NCC(=O)O)C(=O)O` [GSNO, S-nitrosoglutathione], in the data set on S. aureus [1], the “S. aureus growth on the hydrogel” value is “grows less bacteria”. Moreover, the “decrease in the decomposition rate of GSNO” value in data set [2] is given as around 2 fold. The “reduction of bacterial biofilm on the outer catheter surface compared to control solutions” value in the data set on S. aureus [3] turned out to be 70%. Moreover, the “reduction of E. coli biofilm” value with E. coli is listed as 79%. Moreover, the GSNO lifetime is given as 17 days in data set [4] (0.05 M GSNO and 0.15 M αCD in 0.05 M PB, pH 7.4, 37° C.); 7 days in data set [4] (0.05 M GSNO in 0.05 M PB, pH 7.4, 37° C., without CDs); 15 days in data set [4] (setting [6]); 11 days in data set [4] (0.1 M GSNO in 0.1 M PB, pH 7.4, 37° C., with an equal mole (0.1 M) of αCD); 6 days in data set [4] (setting [7]). Also, in data set [4] (0.1 M GSNO in 0.1 M PB, pH 7.4, 37° C., with 0.1 M αCD), the “GSNO decay in the first 24 h” value is reported as 39%. Also, the “first-day decay of GSNO” value in data set [4] (setting [6]) was 22%. Besides, the “GSNO degraded within the first 24 h” value in data set [4] (setting [7]) amounted to 66%. Besides, the “improvement of GSNO lifetime” value in data set [4] (setting [8]) is recorded as 2.5 times. Moreover, the “improvement of first-day decay” value in data set [4] (setting [8]) was determined as 3 times. Also, in data set [4] (in the presence of CDs at 37° C.), the “lifetime of 0.1 M GSNO” value is recorded as “up to 15 days”. In addition, the half-life at 0.05 M in data set [4] (phosphate buffer, room temperature, 0.05 M GSNO in 0.05 M PB pH 7.4, with 0.15 M αCD) is around 20 days. Also, in data set [4] (room temperature, with 0.15 M αCD), the “half-life of GSNO relative to only GSNO” value amounted to 4 times. The “toxicities in in vivo studies” value in data set [5] is reported as “did not reveal any toxicities”.

What is called half-life is the time needed for the level to fall by half in the phase considered. Low readings indicate rapid decline, high ones slow decline.
